“Also recorded” adds a separate entry of the source. Each block holds one compound with its values, some of them ahead of it.
Legend:
CGNs [1] = experiment: MPP+-induced neurotoxicity in CGNs, MTT and LDH assays; type: cell-based, rat
Procedure: (§1) All animal experiments were conducted according to the ethical guidelines of ICMS, Macau University and the Animal Care Facility, The Hong Kong Polytechnic University. Rat CGNs were prepared from 8-day-old Sprague-Dawley rats (The Animal Care Facility, The Hong Kong Polytechnic University) as described by Li et al., 2005. Briefly, neurons were seeded at a density of 2.7×10^5 cells/ml in basal modified Eagle's medium (Invitrogen) containing 10% fetal bovine serum, 25 mM KCl, 2 mM glutamine, and penicillin (100 units/ml)/streptomycin (100 μg/ml). Cytosine arabinoside (10 μM) was added to the culture medium 24 hour after plating to limit the growth of non-neuronal cells. With the use of this protocol, more than 95% of the cultured cells were granule neurons.
(§2) The percentage of surviving neurons in the presence of SU4312 and/or MPP^+ was estimated by determining the activity of mitochondrial dehydrogenases with 3(4,5-dimethylthiazol-2-yl)-2.5-diphenyltetrazolium bromide (MTT) assay (Li et al., 2007). The assay was performed according to the specifications of the manufacturer (MTT kit I; Roche Applied Science). Briefly, the neurons were cultured in 96-well plates, 10 μl of 5 mg/ml MTT labeling reagent was added to each well containing cells in 100 μl of medium, and the plates were incubated for 4 hours in a humidified incubator at 37° C. After the incubation, 100 μl of the solvating solution (0.01 N HCl in 10% SDS solution) was added to each well for 16-20 hours. Absorbance of the samples was measured at a wavelength of 570 nm with 655 nm as a reference wavelength. Unless otherwise indicated, the extent of MTT conversion in cells exposed to MPP^+ is expressed as a percentage of the control.
Cytotoxicity was determined by measuring the release of lactate dehydrogenase (LDH). Briefly, cells were precipitated by centrifugation at 500 g for 5 min at room temperature, 50 μl of the supernatants was transferred into new wells, and LDH was determined using the in vitro toxicology assay kit (Roche). The absorbance of the samples was measured at a wavelength of 490 nm with 655 nm as a reference wavelength.
as §1, with “Rat” for “All animal experiments were conducted according to the ethical guidelines of ICMS, Macau University and the Animal Care Facility, The Hong Kong Polytechnic University. Rat”, “hours” for “hour”
as §2, with “The” for “The percentage of surviving neurons in the presence of SU4312 and/or MPP^+ was estimated by determining the activity of mitochondrial dehydrogenases with 3(4,5-dimethylthiazol-2-yl)-2.5-diphenyltetrazolium bromide (MTT) assay (Li et al., 2007). The”, “incubated at 37° C.” for “incubated”, “incubator.” for “incubator at 37° C.”, “The absorbance” for “Absorbance”

SH-SY5Y cells [2] = experiment: MPP+-induced neurotoxicity in SH-SY5Y cells, MTT assay; type: cell-based, human; settings: for MPP+-induced neuronal death in SH-SY5Y cells (MTT): pre-treatment 2 hours, then 1 mM MPP+ for 24 hours
Procedure: The human neuroblastoma SH-SY5Y cells were obtained from ATCC. The cells were maintained in supplemented Dulbecco's modified eagle medium (DMEM), 10% fetal bovine serum, 100 U/ml penicillin, and 100 μg/ml streptomycin in a 37° C., 5% CO2 incubator. PC12 pheochromocytoma cells were also obtained from ATCC. The cells were cultured in medium that consisted of DMEM, 10% heat-inactivated horse serum, 5% fetal bovine serum, 100 U/ml penicillin, and 100 μg/ml streptomycin in a 37° C., 5% CO2 incubator. All experiments were carried out 48 hours after the cells were seeded. […] The assay was performed according to the specifications of the manufacturer (MTT kit I; Roche Applied Science). […] After the incubation, 100 μl of the solvating solution (0.01 N HCl in 10% SDS solution) was added to each well for 16-20 hours. Absorbance of the samples was measured at a wavelength of 570 nm with 655 nm as a reference wavelength. Unless otherwise indicated, the extent of MTT conversion in cells exposed to MPP^+ is expressed as a percentage of the control.

rat cerebellum nNOS = biological target: T1, rat cerebellum nNOS (Rattus norvegicus, UniProt P29476); experiment: In vitro nNOS activity assay, rat cerebellum nNOS; type: biochemical
T1 construct: purchased Calbiochem
Procedure: Rat cerebellum nNOS was from Calbiochem. NOS activity was determined by monitoring the conversion of L-[3H]arginine to [3H]citrulline following the instructions provided by the kit (Calbiochem). The reaction mixture contained a final volume of 40 μl with 25 mM Tris-Cl at pH 7.4, 3 μM tetrahydrobiopterin, 1 μM FAD, 1 μM FMN, 1 mM NADPH, 0.6 mM CaCl2, 0.1 μM calmodulin, 2.5 μg of pure NOS enzyme, 5 μl L-[3H]arginine (Perkin Elmer, Waltham, Mass., USA), and different concentrations of the tested reagents. The reaction mixture was incubated at 22° C. for 45 min. The reaction was quenched by adding 400 μl of stopping buffer (50 mM HEPES, pH 5.5, and 5 mM EDTA). Unreacted L-[3H]arginine was then trapped by 100 μl of equilibrated resin in a spin cup followed by centrifugation at 13,200 rpm for 30 s.

CGNs [3] = experiment: Low potassium-induced cell death in CGNs, MTT assay; type: cell-based; settings: 5 mM KCl BME medium, 24 hours; sunitinib 0.1-2 μM
Procedure: (§3) Cell viability was measured by MTT assay at 24 hours after low potassium challenge. […] After 24 hours of low potassium challenge, CGNs were assayed with an FDA/PI double staining. […] After 24 hours of low potassium challenge, CGNs were assayed with Hoechst staining. The number of apoptotic nuclei with condensed chromatin were counted from representative Hoechst staining photomicrographs and represented as a percentage of the total number of nuclei counted. […] Intracellular NO level was measured using DAF-FM diacetate as a probe at 4 hour after low potassium challenge. Data, expressed as percentage of control (CGNs were cultured in high potassium medium), were the mean±SEM of three separate experiments; *p<0.05 and **p<0.01 versus low potassium group in (A) and (D) or versus control in (C); ^##p<0.01 versus low potassium group in (C) (Turkey's test).
It was previously reported that low potassium could induce typical apoptosis in cerebellar granule neurons (CGNs) (Fu et al., 2008). […] Cell viability was measured with an MTT assay 24 hours after the low potassium treatment.

CGNs [4] = experiment: FDA/PI double staining of CGNs after low potassium; type: cell-based; settings: 1.5 μM, 24 hours
Procedure: as §3
(§4) The neurons were examined by FDA/PI double staining.

CGNs [5] = experiment: Hoechst 33342 staining of CGNs after low potassium; type: cell-based; settings: 1.5 μM, 24 hours
Procedure: as §3, §4

intracellular NO [6] = experiment: Intracellular NO in CGNs after low potassium; type: cell-based; settings: 1.5 μM, 4 hour after low potassium challenge
Procedure: as §3

intracellular NO [7] = experiment: Intracellular NO in SH-SY5Y cells after MPP+; type: cell-based, human; settings: 0.3 μM 2 hours, then 1 mM MPP+ 24 hours
Procedure: Cell viability was measured by the MTT assay at 24 hours after MPP^+ challenge. […] Intracellular NO level was measured using DAF-FM diacetate as a probe at 24 hour after MPP^+ challenge. Data, expressed as percentage of control, were the mean±SEM of three separate experiments; *p<0.05 and **p<0.01 versus MPP^+ group (ANOVA and Dunnett's test).
DAF-FM diacetate was also used to evaluate the intracellular NO level in this model.

iNOS [8] = biological target: T2, iNOS (Homo sapiens, UniProt P35228); experiment: In vitro NOS activity assay of Example 3, iNOS; type: biochemical; settings: 100 μM; data not shown
eNOS = eNOS (Homo sapiens, UniProt P29474); experiment: In vitro NOS activity assay of Example 3, eNOS; type: biochemical; settings: 100 μM; data not shown
[9] = tested on: nNOS knockdown SH-SY5Y cells; experiment: MPP+ in ShRNA-mediated nNOS knockdown SH-SY5Y cells; type: cell-based, human; settings: 0.3 μM 2 hours, then 1 mM MPP+ 24 hours
Procedure: (A) SH-SY5Y cells were transfected with pG418-GFP plasmid (vector), pG418-GFP plasmid encoding nNOS ShRNA (ShnNOS) and pG418-GFP plasmid encoding negative control ShRNA (ShNC). The level of nNOS and β-actin in the cell lysates were analyzed by Western blotting assay by using specific antibodies. […] Cell viability was measured at 24 hours after MPP^+ challenge by MTT assays. Data were the mean±SEM of three separate experiments; **p<0.01 versus control; ^##p<0.01 versus MPP^+ group; ^&p<0.05 versus MPP^+ vector group (Turkey's test).

SH-SY5Y cells [10] = settings: sustained (3 days) treatment, >1 μM; cited from earlier work
[11] = daily oral administration; cited from earlier work
[12] = cited from earlier work
intracellular NO [13] = experiment: Intracellular NO in CGNs after MPP+ (DAF-FM diacetate); type: cell-based, rat; settings: pre-treatment 2 hours, 35 μM MPP+, 24 hours; SU4312 3-30 μM, 7-NI 3-10 μM
Procedure: (§5) Intracellular NO was monitored with 4-Amino-5-methylamino-2′,7′-difluorofluorescein (DAF-FM) diacetate, a pH-insensitive fluorescent dye that emits increased fluorescence after reaction with an active intermediate of NO formed during the spontaneous oxidation of NO to NO2 (Sheng et al., 2005). DAF-FM solution was added to the culture medium (final concentration: 5 μM). After 30 min in a CO2 incubator, cultures were washed twice with PBS and incubated for an additional 30 min to allow complete de-esterification of the intracellular diacetate for stronger fluorescence. The DAF-FM fluorescence in CGNs was quantified by a multi-detection microplate reader using excitation and emission wavelengths of 495 nm and 515 nm, respectively. The measured fluorescence values were expressed as a percentage of the fluorescence in the control cells.
as §5, with “(4-amino-5-methylamino-2′,7′-difluorofluorescein) DAF-FM” for “4-Amino-5-methylamino-2′,7′-difluorofluorescein (DAF-FM)”, “After incubation for” for “After”, “another” for “an additional”, “strong” for “stronger”

nNOS = nNOS (Homo sapiens, UniProt P29475); settings: cited from earlier work
iNOS [14] = biological target: T2, iNOS; settings: cited from earlier work
CGNs [15] = settings: VEGF 10-300 ng/ml; cited from earlier work

IC50 (rat cerebellum nNOS): 9.6 µM
Compound: CCN(CC)CCNC(=O)c1c(C)[nH]c(/C=C2\C(=O)Nc3ccc(F)cc32)c1C [Sunitinib, N-(2-diethylaminoethyl)-5-[(Z)-(5-fluoro-2-oxo-1H-indol-3-ylidene)methyl]-2,4-dimethyl-1H-pyrrole-3-carboxamide]
cell proliferative or cytotoxic effects of the drug alone (CGNs [1]): did not show cell proliferative or cytotoxic effects
cell proliferative or cytotoxic effects of the drug alone, SH-SY5Y cells (SH-SY5Y cells [2]): did not show cell proliferative or cytotoxic effects
toxicity to SH-SY5Y cells at higher concentration (SH-SY5Y cells [2]; higher concentration (sunitinib 1 μM), data not shown): at higher concentration (1 μM) showed toxicity to SH-SY5Y cells
MPP+-induced neuronal death in SH-SY5Y cells (MTT) (SH-SY5Y cells [2]): prevented MPP^+-induced neuronal death at 0.1-0.3 μM
low potassium-induced cell death (MTT) (CGNs [3]): unexpectedly prevented low potassium-induced cell death in CGNs in a concentration-dependent manner
loss of neurons and morphological alteration induced by low potassium (FDA/PI) (CGNs [4]): significantly blocked the loss of neurons and reversed the morphological alteration
neuronal apoptosis induced by low potassium (Hoechst 33342) (CGNs [5]): significantly reversed neuronal apoptosis induced by low potassium
low potassium-stimulated NO production (intracellular NO [6]): antagonized the stimulatory effect of low potassium on the NO production
MPP+-triggered elevation of intracellular NO level in SH-SY5Y cells (intracellular NO [7]): attenuated MPP^+-triggered elevation of intracellular NO level
inhibitory activity against iNOS (iNOS [8]): showed no inhibitory activity against iNOS or eNOS
inhibitory activity against eNOS (eNOS): showed no inhibitory activity against iNOS or eNOS
MPP+-induced cell death in nNOS knockdown SH-SY5Y cells (MTT) [9]: did not significantly inhibit MPP^+-induced cell death
proliferation of SH-SY5Y cells (previous studies) (SH-SY5Y cells [10]): could reduce the proliferation of SH-SY5Y cells
human plasma steady-state level [11]: 50 to 100 ng/mL
sunitinib still accumulated in the brain ([12]; 60 min following administration): 25%
sunitinib retained in the brain ([12]; 6 hour after oral administration): 60 ng/mL

Compound: O=[N+]([O-])c1cccc2cn[nH]c12 [7-nitroindazole]
MPP+-induced cell death (cell viability, MTT and LDH assays) (CGNs [1]; pre-treatment 2 hours, then 35 μM MPP+ for 24 hours): inhibited neuronal death; also recorded: protected against neuronal apoptosis
MPP+-induced neuronal death in SH-SY5Y cells (MTT) (SH-SY5Y cells [2]): at 5-10 μM prevented MPP^+-induced neuronal death
MPP+-induced elevation of intracellular NO level (intracellular NO [13]): inhibited neuronal death and elevated level of intracellular NO induced by MPP^+
IC50 (nNOS): 0.7 µM
IC50 (iNOS [14]): 20 µM

Compound: VEGF
MPP+-induced neurotoxicity in CGNs (earlier study) (CGNs [15]): protected neurons against MPP^+-induced neurotoxicity

Reference: US9486440B2, “Uses of indole-ketones or indolidones as neuro-protective drugs” (UNIVERSITY OF MACAU, priority 2011, dated 2016)
